Source: PubChem BioAssay (NCI)
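Values below derive from 48-hour exposures of cells grown in 96-well plates, with endpoints linearly interpolated between the two concentrations bracketing the appropriate inhibition level. The concentration for full growth arrest is given as TGI.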

Experiments:
Assay in all cases: DTP human tumour cell line panel, 48 h
[1] = tested on: 786-0 renal
[2] = tested on: A498 renal
[3] = tested on: A549 NSCLC
[4] = tested on: ACHN renal
[5] = tested on: BT-549 breast
[6] = tested on: CAKI-1 renal
[7] = tested on: CCRF-CEM leukemia
[8] = tested on: COLO 205 colon
[9] = tested on: DU-145 prostate
[10] = tested on: HCC-2998 colon
[11] = tested on: HCT-116 colon
[12] = tested on: HCT-15 colon
[13] = tested on: HL-60(TB) leukemia
[14] = tested on: HOP-92 NSCLC
[15] = tested on: HT29 colon
[16] = tested on: IGROV1 ovarian
[17] = tested on: K-562 leukemia
[18] = tested on: KM12 colon
[19] = tested on: M14 melanoma
[20] = tested on: MALME-3M melanoma
[21] = tested on: MCF7 breast
[22] = tested on: MDA-MB-231 breast
[23] = tested on: MDA-MB-435
[24] = tested on: MDA-N
[25] = tested on: MOLT-4 leukemia
[26] = tested on: NCI-H226 lung
[27] = tested on: NCI-H23 lung
[28] = tested on: NCI-H460 lung
[29] = tested on: NCI-H522 lung
[30] = tested on: NCI/ADR-RES ovarian
[31] = tested on: OVCAR-3 ovarian
[32] = tested on: OVCAR-4 ovarian
[33] = tested on: OVCAR-5 ovarian
[34] = tested on: OVCAR-8 ovarian
[35] = tested on: PC-3 prostate
[36] = tested on: RPMI-8226 leukemia
[37] = tested on: RXF 393 renal
[38] = tested on: SF-268 CNS
[39] = tested on: SF-295 CNS
[40] = tested on: SF-539 CNS
[41] = tested on: SK-MEL-2 melanoma
[42] = tested on: SK-MEL-28 melanoma
[43] = tested on: SK-MEL-5 melanoma
[44] = tested on: SN12C renal
[45] = tested on: SNB-19 CNS
[46] = tested on: SNB-75 CNS
[47] = tested on: SR leukemia
[48] = tested on: SW-620 colon
[49] = tested on: T-47D breast
[50] = tested on: TK-10 renal
[51] = tested on: U251 CNS
[52] = tested on: UACC-257 melanoma
[53] = tested on: UACC-62 melanoma
[54] = tested on: UO-31 renal
[55] = tested on: EKVX NSCLC
[56] = tested on: HOP-62 NSCLC
[57] = tested on: LOX IMVI melanoma
[58] = tested on: SK-OV-3 ovarian

With `OC[C@H]1CCCC1O` (some centres undefined) the TGI [1] was over 100 µM, the TGI [2] was over 100 µM and the TGI [3] was over 100 µM. It also gave a TGI [4] of over 100 µM, a TGI [5] of over 100 µM and a TGI [6] of over 100 µM. For the same compound, the TGI [7] was over 100 µM, the TGI [8] was over 100 µM and the TGI [9] was over 100 µM. It also gave a TGI [10] of over 100 µM, a TGI [11] of over 100 µM and a TGI [12] of over 100 µM. It also gave a TGI [13] of over 100 µM, a TGI [14] of over 100 µM and a TGI [15] of over 100 µM. The TGI [16] was over 100 µM, the TGI [17] was over 100 µM and the TGI [18] was over 100 µM. The TGI [19] was over 100 µM, the TGI [20] was over 100 µM and the TGI [21] was over 100 µM. For the same compound, the TGI [22] was over 100 µM, the TGI [23] was over 100 µM and the TGI [24] was over 100 µM. It also gave a TGI [25] of over 100 µM, a TGI [26] of over 100 µM and a TGI [27] of over 100 µM. For the same compound, the TGI [28] was over 100 µM, the TGI [29] was over 100 µM and the TGI [30] was over 100 µM. For the same compound, the TGI [31] was over 100 µM, the TGI [32] was over 100 µM and the TGI [33] was over 100 µM. For the same compound, the TGI [34] was over 100 µM, the TGI [35] was over 100 µM and the TGI [36] was over 100 µM. The TGI [37] was over 100 µM, the TGI [38] was over 100 µM and the TGI [39] was over 100 µM. It also gave a TGI [40] of over 100 µM, a TGI [41] of over 100 µM and a TGI [42] of over 100 µM. For the same compound, the TGI [43] was over 100 µM, the TGI [44] was over 100 µM and the TGI [45] was over 100 µM. It also gave a TGI [46] of over 100 µM, a TGI [47] of over 100 µM and a TGI [48] of over 100 µM. The TGI [49] was over 100 µM, the TGI [50] was over 100 µM and the TGI [51] was over 100 µM. For the same compound, the TGI [52] was over 100 µM, the TGI [53] was over 100 µM and the TGI [54] was over 100 µM.
Work on `Cc1ccc(-c2c(C#N)c(-c3ccc(Cl)cc3)c(C#N)c(=O)n2NS(=O)(=O)c2ccc(C)cc2)cc1` yielded a TGI [1] of over 100 µM, a TGI [2] of 86.3 µM and a TGI [3] of 82.3 µM. For the same compound, the TGI [4] was over 100 µM, the TGI [5] was over 100 µM and the TGI [6] was over 100 µM. It also gave a TGI [7] of 51.8 µM, a TGI [8] of over 100 µM and a TGI [55] of over 100 µM. It also gave a TGI [10] of 74.9 µM, a TGI [11] of 50.6 µM and a TGI [12] of over 100 µM. It also gave a TGI [56] of over 100 µM, a TGI [14] of over 100 µM and a TGI [15] of over 100 µM. The TGI [16] was over 100 µM, the TGI [17] was over 100 µM and the TGI [18] was 80.6 µM. The TGI [57] was 58 µM, the TGI [19] was 60.2 µM and the TGI [20] was over 100 µM. For the same compound, the TGI [21] was 36.5 µM, the TGI [22] was over 100 µM and the TGI [23] was over 100 µM. The TGI [24] was over 100 µM, the TGI [25] was 40.6 µM and the TGI [26] was over 100 µM. The TGI [28] was over 100 µM, the TGI [29] was 71.9 µM and the TGI [30] was 49.6 µM. The TGI [32] was over 100 µM, the TGI [33] was over 100 µM and the TGI [34] was over 100 µM. For the same compound, the TGI [35] was 45 µM, the TGI [37] was 65.7 µM and the TGI [38] was over 100 µM. The TGI [39] was over 100 µM, the TGI [40] was 50.1 µM and the TGI [41] was 40.4 µM. The TGI [42] was over 100 µM, the TGI [43] was 38.9 µM and the TGI [58] was 89.2 µM. The TGI [44] was over 100 µM, the TGI [45] was over 100 µM and the TGI [46] was over 100 µM. It also gave a TGI [48] of over 100 µM, a TGI [50] of over 100 µM and a TGI [51] of over 100 µM. It also gave a TGI [52] of over 100 µM and a TGI [53] of 45 µM.
